In brackets after ≈: the same amount, converted by molar mass. Square brackets hold non-standard residues; d marks the D form. Peptide text beside a SMILES is read from it. NMeL = CN[C@@H](CC(C)C)C(=O)O
Legend:
[1] = tested on: Staphylococcus aureus; experiment: Antimicrobial activity against Staphylococcus aureus ATCC 25923 assessed as reduction in microbial growth incubated for 18 hrs by CLSI-based Mueller-Hinton broth dilution method; assay type: functional
[2] = tested on: Bacillus subtilis; experiment: Antibacterial activity against Bacillus subtilis ATCC 23857 assessed as reduction in bacterial growth incubated for 18 hrs by CLSI-based Mueller-Hinton broth dilution method; assay type: functional
[3] = tested on: Staphylococcus epidermidis; experiment: Antibacterial activity against Staphylococcus epidermidis ATCC 12228 assessed as reduction in bacterial growth incubated for 18 hrs by CLSI-based Mueller-Hinton broth dilution method; assay type: functional
[4] = tested on: Escherichia coli; experiment: Antibacterial activity against Escherichia coli ML-35 ATCC 43837 assessed as reduction in bacterial growth incubated for 18 hrs by CLSI-based Mueller-Hinton broth dilution method; assay type: functional
[5] = tested on: Pseudomonas aeruginosa; experiment: Antibacterial activity against Pseudomonas aeruginosa ATCC 27853 assessed as reduction in bacterial growth incubated for 18 hrs by CLSI-based Mueller-Hinton broth dilution method; assay type: functional
[6] = tested on: Klebsiella pneumoniae; experiment: Antibacterial activity against Klebsiella pneumoniae ATCC 700603 assessed as reduction in bacterial growth incubated for 18 hrs by CLSI-based Mueller-Hinton broth dilution method; assay type: functional
[7] = tested on: Acinetobacter baumannii; experiment: Antibacterial activity against Acinetobacter baumannii ATCC 19606 assessed as reduction in bacterial growth incubated for 18 hrs by CLSI-based Mueller-Hinton broth dilution method; assay type: functional
[8] = tested on: Erythrocyte; experiment: Hemolytic activity in mouse erythrocyte assessed as hemolysis incubated for 1 hr by microplate reader analysis; assay type: toxicity, cell-based
[9] = tested on: Bacillus subtilis; experiment: Antimicrobial activity against Bacillus subtilis ATCC 23857 assessed as reduction in microbial growth incubated for 18 hrs by Mueller-Hinton Broth based microdilution assay; assay type: functional
[10] = tested on: Klebsiella pneumoniae; experiment: Antimicrobial activity against Klebsiella pneumoniae ATCC 700603 assessed as reduction in microbial growth incubated for 18 hrs by Mueller-Hinton Broth based microdilution assay; assay type: functional
[11] = tested on: Pseudomonas aeruginosa; experiment: Antimicrobial activity against Pseudomonas aeruginosa ATCC 27853 assessed as reduction in microbial growth incubated for 18 hrs by Mueller-Hinton Broth based microdilution assay; assay type: functional
[12] = tested on: Staphylococcus aureus; experiment: Antibacterial activity against Staphylococcus aureus ATCC 25923 assessed as reduction in bacterial growth incubated for 18 hrs by Mueller-Hinton Broth based microdilution assay; assay type: functional
[13] = tested on: Escherichia coli; experiment: Antibacterial activity against Escherichia coli ATCC 25922 assessed as reduction in bacterial growth incubated for 18 hrs by Mueller-Hinton Broth based microdilution assay; assay type: functional

MIC [1] [µM]	MIC [2] [µM]	MIC [3] [µM]	MIC [4] [µM]	MIC [5] [µM]	MIC [6] [µM]	MIC [7] [µM]	MIC [9] [µM]	MIC [10] [µM]	MIC [11] [µM]	MIC [12] [µM]	MIC [13] [µM]	Compound	HC10 [8] [µM]
8	2 (≈ 2.59 µg/mL)	4 (≈ 5.18 µg/mL)	4 (≈ 5.18 µg/mL)	16 (≈ 20.7 µg/mL)	32 (≈ 41.4 µg/mL)	8 (≈ 10.4 µg/mL)						CCCCCCCCC(=O)NCCCC[C@@H](NC(=O)[C@@H](NC(=O)[C@H](CCCNC(=N)N)NC(=O)[C@@H](CCCCN)NC(=O)[C@H](CC(C)C)NC(=O)[C@H](CC(C)C)NC(=O)CN)[C@@H](C)CC)C(=O)N[C@H](C(=O)N[C@@H](CC(C)C)C(=O)N[C@@H](CC(C)C)C(N)=O)[C@@H](C)O	256
8	2 (≈ 2.64 µg/mL)	4 (≈ 5.29 µg/mL)	4 (≈ 5.29 µg/mL)	4 (≈ 5.29 µg/mL)	8 (≈ 10.6 µg/mL)	4 (≈ 5.29 µg/mL)						CCCCCCCCCCC(=O)NCCCC[C@@H](NC(=O)[C@@H](NC(=O)[C@H](CCCNC(=N)N)NC(=O)[C@@H](CCCCN)NC(=O)[C@H](CC(C)C)NC(=O)[C@H](CC(C)C)NC(=O)CN)[C@@H](C)CC)C(=O)N[C@H](C(=O)N[C@@H](CC(C)C)C(=O)N[C@@H](CC(C)C)C(N)=O)[C@@H](C)O	128
8	4 (≈ 5.29 µg/mL)	2 (≈ 2.64 µg/mL)	8 (≈ 10.6 µg/mL)	8 (≈ 10.6 µg/mL)	32 (≈ 42.3 µg/mL)	16 (≈ 21.1 µg/mL)						CCCCCCCCCCC(=O)NCCCC[C@@H](NC(=O)[C@H](CC(C)C)NC(=O)[C@H](CC(C)C)NC(=O)CN)C(=O)N[C@@H](CCCNC(=N)N)C(=O)N[C@H](C(=O)N[C@H](CCCCN)C(=O)N[C@H](C(=O)N[C@@H](CC(C)C)C(=O)N[C@@H](CC(C)C)C(N)=O)[C@@H](C)O)[C@@H](C)CC	256
> 128	> 128	> 128	> 128	> 128	> 128	> 128						CCCCC(=O)NCCCC[C@@H](NC(=O)[C@H](CC(C)C)NC(=O)[C@H](CC(C)C)NC(=O)CN)C(=O)N[C@@H](CCCNC(=N)N)C(=O)N[C@H](C(=O)N[C@H](CCCCN)C(=O)N[C@H](C(=O)N[C@@H](CC(C)C)C(=O)N[C@@H](CC(C)C)C(N)=O)[C@@H](C)O)[C@@H](C)CC	> 256
> 128	64 (≈ 79.2 µg/mL)	128 (≈ 158 µg/mL)	128 (≈ 158 µg/mL)	64 (≈ 79.2 µg/mL)	> 128	> 128						CCCCC(=O)NCCCC[C@@H](NC(=O)[C@@H](NC(=O)[C@H](CCCNC(=N)N)NC(=O)[C@@H](CCCCN)NC(=O)[C@H](CC(C)C)NC(=O)[C@H](CC(C)C)NC(=O)CN)[C@@H](C)CC)C(=O)N[C@H](C(=O)N[C@@H](CC(C)C)C(=O)N[C@@H](CC(C)C)C(N)=O)[C@@H](C)O	> 256
128	8 (≈ 10.1 µg/mL)	16 (≈ 20.3 µg/mL)	32 (≈ 40.5 µg/mL)	32 (≈ 40.5 µg/mL)	128 (≈ 162 µg/mL)	32 (≈ 40.5 µg/mL)						CCCCCCC(=O)NCCCC[C@@H](NC(=O)[C@@H](NC(=O)[C@H](CCCNC(=N)N)NC(=O)[C@@H](CCCCN)NC(=O)[C@H](CC(C)C)NC(=O)[C@H](CC(C)C)NC(=O)CN)[C@@H](C)CC)C(=O)N[C@H](C(=O)N[C@@H](CC(C)C)C(=O)N[C@@H](CC(C)C)C(N)=O)[C@@H](C)O	256
16	4 (≈ 5.18 µg/mL)	8 (≈ 10.4 µg/mL)	32 (≈ 41.4 µg/mL)	32 (≈ 41.4 µg/mL)	128 (≈ 166 µg/mL)	32 (≈ 41.4 µg/mL)						CCCCCCCCC(=O)NCCCC[C@@H](NC(=O)[C@H](CC(C)C)NC(=O)[C@H](CC(C)C)NC(=O)CN)C(=O)N[C@@H](CCCNC(=N)N)C(=O)N[C@H](C(=O)N[C@H](CCCCN)C(=O)N[C@H](C(=O)N[C@@H](CC(C)C)C(=O)N[C@@H](CC(C)C)C(N)=O)[C@@H](C)O)[C@@H](C)CC	> 256
4	2 (≈ 2.7 µg/mL)	4 (≈ 5.4 µg/mL)	4 (≈ 5.4 µg/mL)	4 (≈ 5.4 µg/mL)	8 (≈ 10.8 µg/mL)	4 (≈ 5.4 µg/mL)						CCCCCCCCCCCCC(=O)NCCCC[C@@H](NC(=O)[C@H](CC(C)C)NC(=O)[C@H](CC(C)C)NC(=O)CN)C(=O)N[C@@H](CCCNC(=N)N)C(=O)N[C@H](C(=O)N[C@H](CCCCN)C(=O)N[C@H](C(=O)N[C@@H](CC(C)C)C(=O)N[C@@H](CC(C)C)C(N)=O)[C@@H](C)O)[C@@H](C)CC	32
8	4 (≈ 5.51 µg/mL)	4 (≈ 5.51 µg/mL)	8 (≈ 11 µg/mL)	16 (≈ 22 µg/mL)	32 (≈ 44.1 µg/mL)	8 (≈ 11 µg/mL)						CCCCCCCCCCCCCCC(=O)NCCCC[C@@H](NC(=O)[C@H](CC(C)C)NC(=O)[C@H](CC(C)C)NC(=O)CN)C(=O)N[C@@H](CCCNC(=N)N)C(=O)N[C@H](C(=O)N[C@H](CCCCN)C(=O)N[C@H](C(=O)N[C@@H](CC(C)C)C(=O)N[C@@H](CC(C)C)C(N)=O)[C@@H](C)O)[C@@H](C)CC	32
16	8 (≈ 11 µg/mL)	4 (≈ 5.51 µg/mL)	64 (≈ 88.2 µg/mL)	32 (≈ 44.1 µg/mL)	32 (≈ 44.1 µg/mL)	8 (≈ 11 µg/mL)						CCCCCCCCCCCCCCC(=O)NCCCC[C@@H](NC(=O)[C@@H](NC(=O)[C@H](CCCNC(=N)N)NC(=O)[C@@H](CCCCN)NC(=O)[C@H](CC(C)C)NC(=O)[C@H](CC(C)C)NC(=O)CN)[C@@H](C)CC)C(=O)N[C@H](C(=O)N[C@@H](CC(C)C)C(=O)N[C@@H](CC(C)C)C(N)=O)[C@@H](C)O	16
> 128	32 (≈ 40.5 µg/mL)	128 (≈ 162 µg/mL)	> 128	64 (≈ 81 µg/mL)	> 128	> 128						CCCCCCC(=O)NCCCC[C@@H](NC(=O)[C@H](CC(C)C)NC(=O)[C@H](CC(C)C)NC(=O)CN)C(=O)N[C@@H](CCCNC(=N)N)C(=O)N[C@H](C(=O)N[C@H](CCCCN)C(=O)N[C@H](C(=O)N[C@@H](CC(C)C)C(=O)N[C@@H](CC(C)C)C(N)=O)[C@@H](C)O)[C@@H](C)CC	> 256
32	8 (≈ 11.2 µg/mL)	64 (≈ 90 µg/mL)	64 (≈ 90 µg/mL)	64 (≈ 90 µg/mL)	128 (≈ 180 µg/mL)	16 (≈ 22.5 µg/mL)						CCCCCCCCCCCCCCCCC(=O)NCCCC[C@@H](NC(=O)[C@H](CC(C)C)NC(=O)[C@H](CC(C)C)NC(=O)CN)C(=O)N[C@@H](CCCNC(=N)N)C(=O)N[C@H](C(=O)N[C@H](CCCCN)C(=O)N[C@H](C(=O)N[C@@H](CC(C)C)C(=O)N[C@@H](CC(C)C)C(N)=O)[C@@H](C)O)[C@@H](C)CC	> 16
4	2 (≈ 2.7 µg/mL)	4 (≈ 5.4 µg/mL)	16 (≈ 21.6 µg/mL)	8 (≈ 10.8 µg/mL)	16 (≈ 21.6 µg/mL)	4 (≈ 5.4 µg/mL)						CCCCCCCCCCCCC(=O)NCCCC[C@@H](NC(=O)[C@@H](NC(=O)[C@H](CCCNC(=N)N)NC(=O)[C@@H](CCCCN)NC(=O)[C@H](CC(C)C)NC(=O)[C@H](CC(C)C)NC(=O)CN)[C@@H](C)CC)C(=O)N[C@H](C(=O)N[C@@H](CC(C)C)C(=O)N[C@@H](CC(C)C)C(N)=O)[C@@H](C)O	32
							> 128	> 128	128	> 128	> 128	CC[C@H](C)[C@H](NC(=O)[C@H](CCCNC(=N)N)NC(=O)[C@H](CCCCN)NC(=O)[C@H](CC(C)C)N(C)C(=O)[C@H](CC(C)C)N(C)C(=O)CN)C(=O)N[C@@H](CCCCN)C(=O)N[C@H](C(=O)N(C)[C@@H](CC(C)C)C(=O)N(C)[C@@H](CC(C)C)C(N)=O)[C@@H](C)O (H-G[NMeL][NMeL]KRIKT[NMeL][NMeL]-NH2)	

From ChEMBL document CHEMBL5608163, “Structure modification of anoplin for fighting resistant bacteria” (Eur J Med Chem, 2024)
